Reference: article PMC11477621, “Design, Synthesis, and Biological Evaluation of HDAC Inhibitors Containing Natural Product-Inspired N-Linked 2-Acetylpyrrole Cap” (Molecules, 2024)

How the values were obtained:
[1] = tested on: HCT-116 (human colon cancer cell line); assay: CCK8 cell viability assay, HCT-116; type: cell-based; conditions: 72 h, read-out: Proliferation inhibition IC50 ± SD, HCT-116
Method: (§1) The CCK8 (#AC11L054, Life ilab, Shanghai, China) method was used to detect the cells’ proliferation. Cells were seeded into a 96-well culture plate at an appropriate density. […] IC50 values were estimated using the four-parameter method. Each set of experiments was repeated independently three times with three replicate wells per concentration each time.

[2] = tested on: HL-60 (human leukemia cell line); assay: CCK8 cell viability assay, HL-60; type: cell-based; conditions: 72 h, read-out: Proliferation inhibition IC50 ± SD, HL-60
Method: as §1

[3] = tested on: RPMI-8226 (human myeloma cell line); assay: CCK8 cell viability assay, RPMI-8226; type: cell-based; conditions: 72 h, read-out: Proliferation inhibition IC50 ± SD, RPMI-8226
Method: as §1

[4] = tested on: Ac-tubulin in RPMI-8226 cells; assay: Western blot of Ac-tubulin; type: cell-based, human; conditions: tested concentrations, 24 h
Method: RPMI-8226 cells were seeded in six-well plates and treated with compounds for 24 h. Cells were lysed with 1× SDS loading buffer (50 mM Tris pH 6.8, 100 mM DTT, 2% SDS, 0.1% bromophenol blue, 10% glycerol), and then centrifuged at 12,000 rpm for 5 min at 4 °C. Cell extracts were probed with antibodies Ac-Tubulin (#5335T, CST, Kansas City, MO, USA), α-Tubulin (#2144S, CST, Kansas City, MO, USA), AcH3 (#ab39139, active motif, Carlsbad, CA, USA), Histone H3 (#17168-1-AP, Proteintech, Chicago, IL, USA), GAPDH (#60004-1-1g, Proteintech, Chicago, IL, USA), Goat Anti-Mouse IgG, H&L Chain Specific Peroxidase Conjugate (#401215, Calbiochem, Darmstadt, Germany), Goat Anti-Rabbit IgG, or H&L Chain Specific Peroxidase Conjugate (#401353, Calbiochem, Germany), then detected using Bio-RAD power pal Basic (#041BR66615, BioRad Laboratories, Hercules, CA, USA), Bio-RAD Mini-PROTEAN Tetrade System (#IEC/EN 61010-1, BioRad Laboratories, Hercules, CA, USA), or Bio-RAD Chemi Touch Imagin (BioRad Laboratories, Hercules, CA, USA).

HDAC1 = molecular target: T1, HDAC1 (Homo sapiens, UniProt Q13547); assay: HDAC inhibition assay (HTRF), HDAC1; type: biochemical; conditions: for IC50: read-out: IC50 ± SD, HDAC1;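 as to all read-outs here: HTRF detection with streptavidin-XL665 plus Eu(K)-labelled anti-H3K9me0 antibody, two independent runs with duplicate wells per concentration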
T1 construct: purchased BPS #50001
T1 sequence (Q13547 whole entry): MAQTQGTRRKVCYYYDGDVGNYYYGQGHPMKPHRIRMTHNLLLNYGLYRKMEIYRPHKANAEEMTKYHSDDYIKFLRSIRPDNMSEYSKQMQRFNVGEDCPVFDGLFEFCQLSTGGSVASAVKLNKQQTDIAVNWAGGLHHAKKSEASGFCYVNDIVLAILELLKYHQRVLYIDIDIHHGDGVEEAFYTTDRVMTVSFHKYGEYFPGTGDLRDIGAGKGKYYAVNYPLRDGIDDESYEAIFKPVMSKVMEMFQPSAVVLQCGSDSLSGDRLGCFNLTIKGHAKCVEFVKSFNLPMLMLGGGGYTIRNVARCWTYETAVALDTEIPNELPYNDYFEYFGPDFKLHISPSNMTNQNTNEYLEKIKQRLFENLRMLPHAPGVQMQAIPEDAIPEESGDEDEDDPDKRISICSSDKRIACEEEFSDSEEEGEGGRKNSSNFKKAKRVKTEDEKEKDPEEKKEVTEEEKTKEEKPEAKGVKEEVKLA
Method: (§2) Then, SA-XL665 (#610SAXLG, Cisbio, Bedford, MA, USA) and anti-H3K9me0-Eu(K) (#61KB0KAD, Cisbio, USA) were added. […] The IC50 value of the compounds was calculated using GraphPad 7.0 software. Each set of experiments was independently repeated twice, with two replicate wells per concentration each time.

HDAC6 = molecular target: T2, HDAC6 (Homo sapiens, UniProt Q9UBN7); assay: HDAC inhibition assay (HTRF), HDAC6; type: biochemical; conditions: for IC50: read-out: IC50 ± SD, HDAC6
T2 construct: purchased BPS #50006
T2 sequence (Q9UBN7 1-1215): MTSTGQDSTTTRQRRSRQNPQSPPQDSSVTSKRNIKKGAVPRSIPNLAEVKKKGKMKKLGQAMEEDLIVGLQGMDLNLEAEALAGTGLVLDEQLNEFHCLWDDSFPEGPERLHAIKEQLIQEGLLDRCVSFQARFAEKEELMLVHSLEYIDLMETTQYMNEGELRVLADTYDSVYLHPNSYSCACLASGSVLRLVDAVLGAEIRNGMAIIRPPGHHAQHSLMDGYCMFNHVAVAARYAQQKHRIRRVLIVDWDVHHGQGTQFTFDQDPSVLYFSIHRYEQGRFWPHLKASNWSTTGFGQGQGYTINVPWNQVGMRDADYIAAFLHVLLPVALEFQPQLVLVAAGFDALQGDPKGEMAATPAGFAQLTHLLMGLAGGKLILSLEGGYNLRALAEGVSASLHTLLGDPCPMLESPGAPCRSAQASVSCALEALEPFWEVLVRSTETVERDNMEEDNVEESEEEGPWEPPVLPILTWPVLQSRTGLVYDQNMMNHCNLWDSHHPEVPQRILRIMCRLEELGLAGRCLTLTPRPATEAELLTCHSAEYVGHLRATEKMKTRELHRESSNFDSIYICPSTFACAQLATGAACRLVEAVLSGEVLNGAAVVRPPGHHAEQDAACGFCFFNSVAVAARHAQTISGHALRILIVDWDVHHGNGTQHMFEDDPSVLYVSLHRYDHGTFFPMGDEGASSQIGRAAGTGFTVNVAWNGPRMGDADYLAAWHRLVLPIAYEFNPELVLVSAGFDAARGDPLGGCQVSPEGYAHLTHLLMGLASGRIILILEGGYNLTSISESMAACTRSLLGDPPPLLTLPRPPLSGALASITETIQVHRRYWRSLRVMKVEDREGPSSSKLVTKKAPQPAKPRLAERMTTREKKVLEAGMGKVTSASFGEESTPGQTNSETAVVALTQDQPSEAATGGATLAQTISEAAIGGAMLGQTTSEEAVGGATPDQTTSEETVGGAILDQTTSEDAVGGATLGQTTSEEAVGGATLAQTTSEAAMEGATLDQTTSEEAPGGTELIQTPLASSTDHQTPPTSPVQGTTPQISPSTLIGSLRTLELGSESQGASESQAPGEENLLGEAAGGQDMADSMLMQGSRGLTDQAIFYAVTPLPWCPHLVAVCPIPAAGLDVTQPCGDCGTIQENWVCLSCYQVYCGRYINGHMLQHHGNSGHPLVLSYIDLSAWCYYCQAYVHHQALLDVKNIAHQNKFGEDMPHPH
Method: as §2

HDAC3 = HDAC3 (Homo sapiens, UniProt O15379); assay: HDAC inhibition assay (HTRF), HDAC3;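 also: HTRF detection with streptavidin-XL665 and a Eu cryptate-labelled antibody against unmodified H3K9, two independent runs with duplicate wells at each concentration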
HDAC3, sequence (O15379 whole entry): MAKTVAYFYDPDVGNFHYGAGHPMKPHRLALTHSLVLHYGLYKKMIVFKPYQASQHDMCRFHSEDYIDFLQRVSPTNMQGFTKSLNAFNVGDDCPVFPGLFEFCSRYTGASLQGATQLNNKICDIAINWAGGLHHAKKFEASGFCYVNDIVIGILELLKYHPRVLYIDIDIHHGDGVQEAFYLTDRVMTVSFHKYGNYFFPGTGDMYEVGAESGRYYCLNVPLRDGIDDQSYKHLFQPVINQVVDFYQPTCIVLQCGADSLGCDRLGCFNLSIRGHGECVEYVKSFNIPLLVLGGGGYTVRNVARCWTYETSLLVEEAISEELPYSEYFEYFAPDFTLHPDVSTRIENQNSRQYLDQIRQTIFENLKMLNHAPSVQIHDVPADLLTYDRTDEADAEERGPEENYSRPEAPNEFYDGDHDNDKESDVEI
HDAC3, sequence (Q9Y618 395-489 partner limits assumed): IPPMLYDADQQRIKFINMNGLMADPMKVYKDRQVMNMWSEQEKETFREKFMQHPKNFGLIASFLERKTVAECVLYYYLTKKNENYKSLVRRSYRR
Method: as §2

[5] = read-out: (%) Inhibition of HDAC3

Row | Compound | IC50 [1] [µM] | IC50 [2] [µM] | IC50 [3] [µM] | IC50 (HDAC1) [µM] | IC50 (HDAC6) [µM] | IC50 (HDAC3) [µM] | inhibition at 1 µM (HDAC1) [%] | inhibition at 1 µM (HDAC6) [%] | inhibition at 1 µM (HDAC3; [5]) [%] | inhibition at 10 µM (HDAC1; at 10 μM) [%] | inhibition at 10 µM (HDAC6; at 10 μM) [%] | inhibition at 10 µM (HDAC3; [5]) [%] | Ac-α-tubulin protein expression [4]
1 | Nc1cc(F)ccc1NC(=O)c1ccc(CNC(=O)/C=C/c2cccnc2)cc1 [Chidamide, reference compound] | 4.67 ± 0.53 | 0.5 ± 0.08 | 10.2 ± 1.02 | – | – | – | – | – | – | – | – | – | no discernible effect
2 | CC(=O)c1cccn1CCCC(=O)NO [Compound 3a, 4-(2-Acetyl-1H-pyrrol-1-yl)-N-hydroxybutanamide] | – | – | – | > 10 | > 10 | > 10 | – | – | – | – | – | – | –
3 | CC(=O)c1cccn1CCCCC(=O)NO [Compound 3b, 5-(2-Acetyl-1H-pyrrol-1-yl)-N-hydroxypentanamide] | – | – | – | 0.426 ± 0.0138 | > 10 | > 10 | – | – | – | – | – | – | –
4 | CC(=O)c1cccn1CCCCCC(=O)NO [Compound 3c, 6-(2-Acetyl-1H-pyrrol-1-yl)-N-hydroxyhexanamide] | – | – | – | 0.118 ± 0.0308 | 0.0823 ± 0.0152 | 0.138 ± 0.0186 | – | – | – | – | – | – | –
5 | CC(=O)c1cccn1CCCCCCC(=O)NO [Compound 3d, 7-(2-Acetyl-1H-pyrrol-1-yl)-N-hydroxyheptanamide] | > 30 | > 30 | > 30 | 0.0519 ± 0.00673 | 0.0142 ± 0.00124 | 0.04553 ± 0.00023 | – | – | – | – | – | – | –
6 | CC(=O)c1cccn1CCCCCCCC(=O)NO [Compound 3e, 8-(2-Acetyl-1H-pyrrol-1-yl)-N-hydroxyoctanamide] | – | – | – | 0.0824 ± 0.0312 | 0.0155 ± 0.0029 | 0.085 ± 0.00121 | – | – | – | – | – | – | –
7 | CC(=O)c1cccn1CCc1ccc(C(=O)NO)cc1 [Compound 11, 4-(2-(2-Acetyl-1H-pyrrol-1-yl)ethyl)-N-hydroxybenzamide] | 17.1 ± 8.69 | 28 ± 0.56 | 11.7 ± 1.75 | – | – | – | – | – | – | 77.6 | 89.5 | 79.9 | –
8 | Nc1ccccc1NC(=O)c1ccc(CNC(=O)OCc2cccnc2)cc1 [MS-275, entinostat, reference compound] | – | – | – | – | – | – | – | – | – | – | – | – | no discernible effect

Second part, led by results:

Row | IC50 [1] [µM] | IC50 [2] [µM] | IC50 [3] [µM] | IC50 (HDAC1) [µM] | IC50 (HDAC6) [µM] | IC50 (HDAC3) [µM] | inhibition at 1 µM (HDAC1) [%] | inhibition at 1 µM (HDAC6) [%] | inhibition at 1 µM (HDAC3; [5]) [%] | inhibition at 10 µM (HDAC1; at 10 μM) [%] | inhibition at 10 µM (HDAC6; at 10 μM) [%] | inhibition at 10 µM (HDAC3; [5]) [%] | Compound | Ac-α-tubulin protein expression [4]
9 | 26.4 ± 4.1 | 19.8 ± 1.88 | > 30 | 0.101 ± 0.0257 | 0.0164 ± 0.00631 | 0.129 ± 0.0516 | – | – | – | – | – | – | O=C(CCCCCCn1cccc1)NO [Compound 5a, N-hydroxy-7-(1H-pyrrol-1-yl)heptanamide] | –
10 | 23 ± 7.03 | 12.9 ± 0.75 | 19.9 ± 7.71 | 0.0542 ± 0.00874 | 0.00767 ± 0.00106 | 0.0582 ± 0.00464 | – | – | – | – | – | – | CCC(=O)c1cccn1CCCCCCC(=O)NO [Compound 5b, N-hydroxy-7-(2-propionyl-1H-pyrrol-1-yl)heptanamide] | –
11 | > 30 | 21.8 ± 10.7 | > 30 | 0.052 ± 0.0219 | 0.0112 ± 0.00476 | 0.0495 ± 0.00292 | – | – | – | – | – | – | COC(=O)c1cccn1CCCCCCC(=O)NO [Compound 5d, Methyl 1-(7-(hydroxyamino)-7-oxoheptyl)-1H-pyrrole-2-carboxylate] | –
12 | 19.8 ± 8.32 | 7.5 ± 1.55 | 17.9 ± 6.51 | 0.0137 ± 0.00439 | 0.00974 ± 0.00637 | 0.00308 ± 0.00097 | – | – | – | – | – | – | O=C(CCCCCCn1cccc1C(=O)c1ccccc1)NO [Compound 5e, 7-(2-Benzoyl-1H-pyrrol-1-yl)-N-hydroxyheptanamide] | –
13 | > 30 | > 30 | > 30 | – | – | – | 96.8 | 92.6 | 94.4 | – | – | – | O=C(CCCCCCn1ccc2ccccc21)NO [Compound 5f, N-hydroxy-7-(1H-indol-1-yl)heptanamide] | –
14 | > 30 | > 30 | > 30 | – | – | – | 96.1 | 91.5 | 93.5 | – | – | – | Cc1ccc2c(ccn2CCCCCCC(=O)NO)c1 [Compound 5g, N-hydroxy-7-(5-methyl-1H-indol-1-yl)heptanamide] | –
15 | > 30 | > 30 | > 30 | – | – | – | 96.5 | 92.4 | 93.2 | – | – | – | O=C(CCCCCCn1ccc2ccc(F)cc21)NO [Compound 5h, 7-(6-Fluoro-1H-indol-1-yl)-N-hydroxyheptanamide] | –
16 | > 30 | > 30 | > 30 | 0.00448 ± 0.00243 | ≤ 0.0017 | 0.00182 ± 0.00078 | – | – | – | – | – | – | O=C(CCCCCCn1ccc2cc(F)ccc21)NO [Compound 5i, 7-(5-Fluoro-1H-indol-1-yl)-N-hydroxyheptanamide] | –
17 | > 30 | > 30 | > 30 | – | – | – | 96.2 | 92.3 | 93.3 | – | – | – | O=C(CCCCCCn1ccc2cc(Cl)ccc21)NO [Compound 5j, 7-(5-Chloro-1H-indol-1-yl)-N-hydroxyheptanamide] | –
18 | > 30 | > 30 | > 30 | – | – | – | 96.2 | 90.3 | 92.2 | – | – | – | O=C(CCCCCCn1ccc2cc(Br)ccc21)NO [Compound 5k, 7-(5-Bromo-1H-indol-1-yl)-N-hydroxyheptanamide] | –
19 | > 30 | > 30 | > 30 | 0.00242 ± 0.00036 | 0.00231 ± 0.00034 | 0.00118 ± 6e-05 | – | – | – | – | – | – | N#Cc1ccc2c(ccn2CCCCCCC(=O)NO)c1 [Compound 5l, 7-(5-Cyano-1H-indol-1-yl)-N-hydroxyheptanamide] | –
20 | – | – | – | > 10 | > 10 | > 10 | – | – | – | – | – | – | CC(=O)c1cccn1Cc1cn(CCc2ccc(C(=O)Nc3ccc(F)cc3N)cc2)nn1 [Compound 19b, 4-(2-(4-((2-Acetyl-1H-pyrrol-1-yl)methyl)-1H-1,2,3-triazol-1-yl)ethyl)-N-(2-amino-4-fluorophenyl)benzamide] | –
21 | – | – | – | > 10 | > 10 | > 10 | – | – | – | – | – | – | CC(=O)c1cccn1Cc1cn(CCc2ccc(C(=O)Nc3ccc(Cl)cc3N)cc2)nn1 [Compound 19c, 4-(2-(4-((2-Acetyl-1H-pyrrol-1-yl)methyl)-1H-1,2,3-triazol-1-yl)ethyl)-N-(2-amino-4-chlorophenyl)benzamide] | –
22 | – | – | – | > 10 | > 10 | > 10 | – | – | – | – | – | – | CC(=O)c1cccn1Cc1cn(CCc2ccc(C(=O)Nc3cc(F)c(F)cc3N)cc2)nn1 [Compound 19d, 4-(2-(4-((2-Acetyl-1H-pyrrol-1-yl)methyl)-1H-1,2,3-triazol-1-yl)ethyl)-N-(2-amino-4,5-difluorophenyl)benzamide] | –
23 | – | – | – | > 10 | > 10 | > 10 | – | – | – | – | – | – | COc1ccc(NC(=O)c2ccc(CCn3cc(Cn4cccc4C(C)=O)nn3)cc2)c(N)c1 [Compound 19e, 4-(2-(4-((2-Acetyl-1H-pyrrol-1-yl)methyl)-1H-1,2,3-triazol-1-yl)ethyl)-N-(2-amino-4-methoxyphenyl)benzamide] | –
